A short description of series [1]: Plasma concentration after multiple injections in NHP. The class given is in vivo, cynomolgus monkeys. The conditions noted are these: cynomolgus monkey, in vivo, sc, 4 mg/kg.
A short description of series [2]: Residence time in the vitreous after intravitreal injection (WES / SPR competition assay). The class given is in vivo, cynomolgus monkeys. The arrangement: detection in the vitreous: dose or concentration left out as unconfirmed. The conditions noted are these: Cp40 i.v.t administered. How it is done:
To determine the residence time of mPEG(3k)-Cp40, mPEG(1k)-Cp40, Cp40-KK, and Cp40-KKK in the vitreous of cynomolgus macaques, these Cp40-based analogs were administered intravitreally (i.v.t.) to the animals after induction of light ketamine anesthesia (10-15 mg/kg, by intramuscular injection (i.m.)) and dilation of the pupils with tropicamide/phenylephrine ophthalmic solution (see Table 6 for study design).
For i.v.t. injection, the cynomolgus monkeys were anesthetized with a combination of ketamine (15-25 mg/kg, i.m.) and xylazine (2 mg/kg, i.m.) and the eye was cleaned with povidone-iodine solution. After application of oxybuprocaine hydrochloride solution (Benoxil® ophthalmic solution 0.4%) to the cornea as a local anesthetic, the Cp40-based analogs were administered to the animals by i.v.t. injection into either the right (G1, G3) or left (G2, G4) eye of each animal. Immediately following each injection, a single topical dose of 0.5% levofloxacin was administered. After i.v.t. injection of mPEG(3k)-Cp40, mPEG(1k)-Cp40, Cp40-KK, and Cp40-KKK, vitreous fluid samples (about 50 μL each) were withdrawn from Cp40-based analog-treated eyes on days 14, 28, 42, (G1, G2, G3, G4), 56, 73, 90 (G1, G2) (this was done either three times or six times). Samples were collected on ice and stored in a deep freezer (−79.3 to −68.5° C.) until further analysis. On day 73 and 90, about 100 μL of vitreous fluid from G1 and G2 were withdrawn. Presence and concentration of the Cp40-based analogs was determined using either the simple western technology (WES, ProteinSimple, San Jose, Calif.), or surface plasmon resonance (SPR)-based real-time measurement of binding kinetics on a Cp40-KKK immobilized chip (see detailed methods below). Similar results with regard to the intravitreal residence time and concentration levels of the test compounds were obtained regardless of the quantification method selected.
To quantify the levels of all test compounds in vitreous samples collected at different time points following i.v.t. injection (see FIG. 15), WES analysis was performed on a WES instrument (ProteinSimple, San Jose, Calif.) using a 2 to 40 kDa Separation Module and Anti-Rabbit Detection Module according to the manufacturers' instructions. In brief, undiluted eye vitreous samples were mixed with a Fluorescent Master Mix and heated at 95° C. for 5 min. The samples, blocking reagent, primary antibodies (in house developed anti-Cp40; 1:1000 in blocking reagent), HRP-conjugated secondary antibody (anti-rabbit IgG) and chemiluminescent substrate were pipetted into the plate (part of Separation Module). The used instrument settings were: stacking and separation at 375 V for 27 min; blocking reagent for 30 min, primary and secondary antibody both for 30 min; Luminol/peroxide chemiluminescence detection for ˜15 min (exposures of 5, 15, 30, 60, 120, 240, and 480 s). The resulting electropherograms were evaluated using the Compass software (ProteinSimple, San Jose, Calif.). The following criteria were used to discriminate low peptide signals from background: The peak signal-to-noise (S/N) ratio given by the software must be ≥10, and the peak height/baseline ratio (calculated manually from the peak height and baseline values given by the software) must be equal to or greater than 3. A five-point standard curve of known concentrations (100-2,000 nM) of peptide spiked in rabbit vitreous was used to calculate peptide concentration in the vitreous samples using the Compass software (Compass Software Inc., Atlanta, Ga.). […] Shown in FIG. 15 is a representative standard curve generated using the WES system and bands obtained upon running pre-determined amounts of purified peptide spiked into rabbit vitreous samples.
To corroborate the WES-based measurements for all test compounds, an SPR-based competition assay was developed for detecting Cp40 and Cp40 analogs in biological samples. […] The samples were heated at 95° C. for 5 min. […]

In series [3] the test system is classical pathway activation (C3b deposition). Briefly: Classical pathway activation ELISA (C3b deposition) with or without rabbit vitreous. The class given is biochemical, human. The note with it: in the absence of vitreous. As for the experimental part: An alternative explanation to the one presented above is that the vitreous contains additional unidentified factors that associate with the Cp40-KKK analog. To investigate whether an unidentified vitreous factor impacts the complement inhibitory activity of lysine containing compounds, complement activation assays were performed using vitreous samples. Briefly, human plasma was incubated with OVA-anti-OVA immune-complexes in the presence of serial dilutions of the Cp40-based analogs mixed with rabbit vitreous. Levels of classical pathway activation (C3b deposition) were determined by ELISA using a polyclonal anti-human C3 antibody conjugated with HRP (MP Biomedicals, Solon, Ohio) (FIG. 20).
Background: In an ELISA, binding on a coated surface is turned into a signal by an enzyme label.

A further series concerns the target C3 (Homo sapiens, UniProt P01024). The conditions noted are these: Qu et al. 2013; cited from earlier work.
Series [4] can be described thus: in vivo. The conditions noted are these: male, cynomolgus monkey, sc, 2 mg/kg, t1/2.
A short description of series [5]: in vivo. The note with it: cynomolgus monkey, im, 25 mg/kg.
A short description of the next series: physchem. The note with it: pH 7.4, Conc. (solubility in PBS).
The nature of series [6]: Solubility of Cp40-based analogs in PBS. The conditions noted are these: at the solubility concentration.
A short description of series [7]: Pharmacokinetics in NHP plasma after single s.c. injection. The conditions noted are these: 2 mg/kg, single s.c. 2 mg/kg, NHP plasma, two animals.

Each structure is given as a SMILES string.

C3, sequence (P01024 23-1663): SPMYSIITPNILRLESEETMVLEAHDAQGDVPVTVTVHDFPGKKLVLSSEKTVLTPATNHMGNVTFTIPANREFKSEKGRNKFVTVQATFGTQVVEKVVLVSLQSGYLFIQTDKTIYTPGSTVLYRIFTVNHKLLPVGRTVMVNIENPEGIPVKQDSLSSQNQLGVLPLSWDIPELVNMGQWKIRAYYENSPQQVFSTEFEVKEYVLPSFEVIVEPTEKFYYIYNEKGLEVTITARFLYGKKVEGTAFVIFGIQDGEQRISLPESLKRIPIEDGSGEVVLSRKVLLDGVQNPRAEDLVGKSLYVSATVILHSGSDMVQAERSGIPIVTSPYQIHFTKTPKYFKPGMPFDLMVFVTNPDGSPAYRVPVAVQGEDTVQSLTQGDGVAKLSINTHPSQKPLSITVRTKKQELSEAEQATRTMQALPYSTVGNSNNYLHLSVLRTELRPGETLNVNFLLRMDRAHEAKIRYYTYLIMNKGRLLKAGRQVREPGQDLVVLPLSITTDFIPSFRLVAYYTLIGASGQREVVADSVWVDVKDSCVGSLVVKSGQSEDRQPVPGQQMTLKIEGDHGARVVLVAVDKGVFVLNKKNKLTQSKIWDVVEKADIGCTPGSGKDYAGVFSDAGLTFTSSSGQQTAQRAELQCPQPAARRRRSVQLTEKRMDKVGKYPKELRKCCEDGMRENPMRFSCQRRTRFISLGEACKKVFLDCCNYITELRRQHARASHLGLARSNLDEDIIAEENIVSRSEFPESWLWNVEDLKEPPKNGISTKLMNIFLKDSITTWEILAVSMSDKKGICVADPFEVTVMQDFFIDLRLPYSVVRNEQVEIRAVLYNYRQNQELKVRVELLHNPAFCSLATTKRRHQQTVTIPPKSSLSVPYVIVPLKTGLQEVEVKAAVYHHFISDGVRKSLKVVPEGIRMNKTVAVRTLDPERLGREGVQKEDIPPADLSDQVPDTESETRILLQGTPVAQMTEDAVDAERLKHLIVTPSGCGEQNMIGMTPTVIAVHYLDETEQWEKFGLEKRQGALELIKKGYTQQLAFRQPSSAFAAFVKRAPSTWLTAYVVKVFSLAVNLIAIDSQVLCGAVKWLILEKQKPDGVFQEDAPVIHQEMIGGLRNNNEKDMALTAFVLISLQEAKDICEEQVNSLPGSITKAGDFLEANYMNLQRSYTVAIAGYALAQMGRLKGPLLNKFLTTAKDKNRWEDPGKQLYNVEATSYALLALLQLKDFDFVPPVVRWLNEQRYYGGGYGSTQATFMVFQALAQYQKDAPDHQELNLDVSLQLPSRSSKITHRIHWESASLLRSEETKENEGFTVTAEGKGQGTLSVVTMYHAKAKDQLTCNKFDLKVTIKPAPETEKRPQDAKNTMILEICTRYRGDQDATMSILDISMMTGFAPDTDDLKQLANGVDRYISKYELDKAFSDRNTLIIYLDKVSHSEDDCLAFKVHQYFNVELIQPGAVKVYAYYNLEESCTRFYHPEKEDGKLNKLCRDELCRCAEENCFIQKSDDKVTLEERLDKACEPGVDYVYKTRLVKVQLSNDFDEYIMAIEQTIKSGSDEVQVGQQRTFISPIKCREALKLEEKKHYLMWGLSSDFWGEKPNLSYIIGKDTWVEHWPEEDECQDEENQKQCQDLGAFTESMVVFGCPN

Broadly, the Cmax is the highest concentration seen after dosing. A word on the half-life: it is how long it takes for the measured level to halve. The solubility is the concentration that dissolves in the medium under given conditions. A word on the AUC(0-t): it is the area under the concentration-time curve up to a stated or last time point. For orientation: AUC(0-inf) means the area under the concentration-time curve extrapolated to infinity. Usually Tmax stands for the time from dosing to the highest level. Take `CC[C@H](C)[C@H](NC(=O)[C@H](N)Cc1ccc(O)cc1)C(=O)N[C@H]1CSSC[C@@H](C(=O)N(C)[C@H](C(N)=O)[C@@H](C)CC)NC(=O)[C@H](CCCNC(=N)N)NC(=O)[C@H](Cc2c[nH]cn2)NC(=O)[C@H](C)NC(=O)CN(C)C(=O)[C@H](Cc2c[nH]c3ccccc23)NC(=O)[C@H](CC(=O)O)NC(=O)[C@H](CCC(N)=O)NC(=O)[C@H](Cc2cn(C)c3ccccc23)NC(=O)[C@H](C(C)C)NC1=O` [Cp40, DTyr-Ile-[Cys-Val-Trp(Me)-Gln-Asn-Trp-Sar-Ala-His-Arg-Cys]-mIle-NH2, reference compound]: the Cmax is 8 to 10 µM in series [1]; 6.2 µM in series [7] (male, cynomolgus monkey, plasma, sc, Cmax); 5.53 µM in series [7]. In addition, the “detection in the vitreous” value in series [2] was “no detection of any compound was observed after one month”. Moreover, the “complement classical pathway inhibitory activity” value in series [3] was “inhibitory activity in a dose-dependent manner”. The “binding affinity for C3” value on C3 is on record as “subnanomolar”. The “binding affinity for C3 higher than that of the parent peptide” value at C3 is recorded as ~6,000 fold. In addition, the half-life was 41 h in the series “in vivo [4]” and ~192 h in “in vivo [5]”. The solubility in “physchem” is ≥ 1080 µg/mL. In addition, in series [6], the “pH of the peptide solution in PBS” value amounted to 7.5. Moreover, the exposure AUC(0-t) in [7] (male, cynomolgus monkey, plasma, sc, AUC0-t (0-120 h)) was 233 µM·h. In addition, in series [7] (male, cynomolgus monkey, plasma, sc, AUCinf), the AUC(0-inf) is 263 µM·h. Moreover, in series [7] (male, cynomolgus monkey, plasma, sc, tmax), the Tmax stood at 2 h. In [7], the “AUC0-t (0-120 h)” value was 218 µM·h. Moreover, the AUCinf in series [7] was found to be 255 µM·h.

Source of the values: patent publication US10800812B2, “Compstatin analogs with increased solubility and improved pharmacokinetic properties” (The Trustees of the University of Pennsylvania, priority 2018, dated 2020).
